Source: publication PMC6367708 (Journal of medicinal chemistry, 2018)

Experiments:
CYP17A1 [1] = target: T1, CYP17A1 (Homo sapiens, UniProt P05093); assay: Inhibition of CYP17A1-mediated progesterone 17α-hydroxylation; assay type: biochemical; conditions: for increase in IC50 for CYP17A1: relative to abiraterone
T1 sequence (P05093 with tags, fused parts or gaps limits assumed): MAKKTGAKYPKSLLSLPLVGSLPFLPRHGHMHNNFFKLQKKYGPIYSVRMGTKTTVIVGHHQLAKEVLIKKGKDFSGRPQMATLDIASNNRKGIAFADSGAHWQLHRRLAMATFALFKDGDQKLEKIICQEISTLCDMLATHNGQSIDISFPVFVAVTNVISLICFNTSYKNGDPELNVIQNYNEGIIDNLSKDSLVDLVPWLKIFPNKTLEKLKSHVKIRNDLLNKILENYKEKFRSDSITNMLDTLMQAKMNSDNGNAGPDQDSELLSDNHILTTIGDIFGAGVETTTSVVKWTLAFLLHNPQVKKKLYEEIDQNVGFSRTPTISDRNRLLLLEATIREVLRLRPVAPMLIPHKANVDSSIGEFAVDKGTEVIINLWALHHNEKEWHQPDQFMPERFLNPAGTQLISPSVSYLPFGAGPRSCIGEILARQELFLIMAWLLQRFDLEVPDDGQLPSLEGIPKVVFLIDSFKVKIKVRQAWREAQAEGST

CYP21A2 [2] = target: T2, CYP21A2 (Homo sapiens, UniProt P08686); assay: Inhibition of CYP21A2-mediated progesterone 21-hydroxylation; assay type: biochemical
T2 sequence (P08686 with tags, fused parts or gaps): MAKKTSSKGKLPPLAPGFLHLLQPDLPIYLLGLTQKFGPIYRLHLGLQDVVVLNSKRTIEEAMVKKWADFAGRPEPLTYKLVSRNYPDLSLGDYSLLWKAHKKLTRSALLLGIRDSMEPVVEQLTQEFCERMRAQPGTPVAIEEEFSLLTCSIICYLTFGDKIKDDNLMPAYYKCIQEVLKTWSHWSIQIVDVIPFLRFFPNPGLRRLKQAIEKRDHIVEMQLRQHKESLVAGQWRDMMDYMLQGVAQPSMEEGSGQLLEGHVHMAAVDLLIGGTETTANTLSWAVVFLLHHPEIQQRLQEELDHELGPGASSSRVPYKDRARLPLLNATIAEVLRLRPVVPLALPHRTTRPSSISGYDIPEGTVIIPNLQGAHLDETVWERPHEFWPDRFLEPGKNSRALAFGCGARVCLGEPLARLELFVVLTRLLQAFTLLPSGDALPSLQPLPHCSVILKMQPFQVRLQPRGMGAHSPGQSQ

CYP17A1 [3] = target: T1, CYP17A1; conditions: reported; cited from earlier work
CYP21A2 [4] = assay: Inhibition of CYP21A2-mediated progesterone 21-hydroxylation; assay type: biochemical, human

C[C@]12CC[C@H](O)CC1=CC[C@@H]1[C@@H]2CC[C@]2(C)C(c3ccccc3)=CC[C@@H]12 [3b, 17-Phenylandrosta-5,16-dien-3β-ol]
increase in IC50 for CYP17A1 (CYP17A1 [1]): more than 4,000 fold
increase in IC50 for CYP21A2 (CYP21A2 [2]; relative to abiraterone): > 20 fold

C[C@]12CC[C@H]3[C@@H](C[C@@H]4O[C@@]45C[C@@H](O)CC[C@]35C)[C@@H]1CC=C2c1cccnc1 [6b, 5α,6α-Epoxy-17-(3-pyridyl)androst-16-en-3β-ol]
IC50 (CYP17A1 [1]): 7.83 ± 0.92 nM
IC50 (CYP21A2 [2]): 42.1 ± 8.5 nM

C[C@]12CC[C@H](O)C[C@@H]1C(=NO)C[C@@H]1[C@@H]2CC[C@]2(C)C(c3cccnc3)=CC[C@@H]12 [13b, 3β-Hydroxy-17-(3-pyridyl)-5α-androst-16-en-6-one oxime]
IC50 (CYP17A1 [1]): 16.5 ± 2.5 nM
increase in IC50 for CYP17A1 (CYP17A1 [1]): ca. 3 fold
IC50 (CYP21A2 [2]): 1390 ± 120 nM
increase in IC50 for CYP21A2 (CYP21A2 [2]; relative to abiraterone): 43 fold

C[C@]12CC[C@H](O)C[C@@H]1NC(=O)C[C@@H]1[C@@H]2CC[C@]2(C)C(c3cccnc3)=CC[C@@H]12 [14b, 6-Aza-7-oxo-17-(3-pyridyl)-B-homo-5α-androst-16-en-3β-ol]
selectivity for CYP17A1 inhibition over CYP21A2 inhibition (CYP17A1 [1]; progesterone hydroxylation reactions): ca. 16 fold

C[C@]12CCC(=O)C=C1CC[C@@H]1[C@@H]2CC[C@]2(C)C(c3cccnc3)=CC[C@@H]12 [compound 4, 17-(3-Pyridyl)androsta-4,16-dien-3-one]
inhibition of CYP17A1 (CYP17A1 [3]): comparably to abiraterone itself
decrease in the IC50 for CYP21A2 (CYP21A2 [2]; relative to abiraterone): 46 fold
selectivity for CYP21A2 over CYP17A1 (CYP21A2 [4]): 8.8 times

C[C@]12CC[C@H](O)CC1=C(C#N)C[C@@H]1[C@@H]2CC[C@]2(C)C(c3cccnc3)=CC[C@@H]12 [compound 7, 3β-Hydroxy-17-(3-pyridyl)androsta-5,16-dien-6-carbonitrile]
increase in IC50 for CYP17A1 (CYP17A1 [1]): 3 fold

C[C@]12CC[C@H](O)CC1=C(C(N)=O)C[C@@H]1[C@@H]2CC[C@]2(C)C(c3cccnc3)=CC[C@@H]12 [compound 8, 3β-Hydroxy-17-(3-pyridyl)androsta-5,16-dien-6-carboxamide]
increase in IC50 for CYP17A1 (CYP17A1 [1]): 4.6 fold
increase in IC50 for CYP21A2 (CYP21A2 [2]; relative to abiraterone): 20 fold
